Experimental data as given in publication PMC4106981 (Neuropharmacology, 2014).
Structures can show the parent of a compound that is named as a salt.

Experiments:
[1] = test system: Male ICR mice; assay: Activity counts in the drug-paired compartment on CPP test day; type: in vivo, mouse; conditions: mean ± S.E.M., n=6-8
[2] = Plasma nicotine and cotinine levels in the CPP test; type: in vivo, mouse
[3] = test system: Male ICR mice; assay: Mecamylamine-precipitated nicotine withdrawal: somatic signs; type: in vivo, mouse; conditions: methoxsalen 15 mg/kg i.p. 15 min before nicotine 2 mg/kg s.c. three times daily for 4 days; mecamylamine 2 mg/kg s.c. on day 5
[4] = test system: Male ICR mice; assay: Mecamylamine-precipitated nicotine withdrawal: elevated plus maze; type: in vivo, mouse
[5] = test system: human CYP2A6; conditions: ref Zhang et al., 2001; Damaj et al., 2007; cited from earlier work
[6] = test system: Male ICR mice; assay: Nicotine conditioned place preference; type: in vivo, mouse
[7] = test system: Male ICR mice; conditions: chronic nicotine 36 mg/kg/day in minipumps for 7 days, after removing the mini pumps
[8] = test system: Male ICR mice; assay: Spontaneous nicotine withdrawal and its reversal: hot plate hyperalgesia; type: in vivo, mouse; conditions: chronic nicotine 36 mg/kg/day in minipumps for 7 days, after removing the mini pumps
[9] = CYP2A(4/5) null mouse; ref Wei et al., 2013; cited from earlier work

COc1c2occc2cc2ccc(=O)oc12 [Methoxsalen, 8-methoxypsoralen]
Activity counts in the drug-paired compartment on test day ([1]; methoxsalen 15 mg/kg i.p. + nicotine 0.1 mg/kg s.c.): 524 ± 69 | Activity counts in the drug-paired compartment on test day ([1]; methoxsalen 15 mg/kg i.p. + saline): 561 ± 83 | Activity counts in the drug-paired compartment on test day ([1]; methoxsalen 30 mg/kg i.p. + nicotine 0.1 mg/kg s.c.): 488 ± 111 | Activity counts in the drug-paired compartment on test day ([1]; methoxsalen 30 mg/kg i.p. + saline): 470 ± 105 | Activity counts in the drug-paired compartment on test day ([1]; methoxsalen 45 mg/kg i.p. + nicotine 0.1 mg/kg s.c.): 513 ± 103 | Activity counts in the drug-paired compartment on test day ([1]; methoxsalen 45 mg/kg i.p. + saline): 503 ± 89 | Effect on nicotine plasma levels ([2]; highest dose of methoxsalen (45 mg/kg i.p.) before nicotine 0.1 mg/kg s.c.): doubled | Effect on nicotine plasma levels ([2]; methoxsalen 15, 30, 45 mg/kg i.p. 15 min before nicotine 0.1 mg/kg s.c., blood 20 min after nicotine, last conditioning day): significantly increased | Somatic withdrawal signs [3]: significant somatic withdrawal signs | Number Crossovers (Mean ± SEM) in the plus-maze test ([4]; Methoxsalen 15 mg/kg i.p. / Vehicle / Mecamylamine 2 mg/kg s.c., 5 min, n=5-7): 6.0 ± 0.8 | Average time spent in open arms (elevated plus maze) ([4]; methoxsalen 15 mg/kg i.p. 15 min before nicotine 2 mg/kg s.c. three times daily for 4 days, mecamylamine 2 mg/kg s.c. on day 5): further decrease | Inhibition of human CYP2A6 [5]: potent inhibitor | Nicotine conditioned place preference ([6]; methoxsalen 45 mg/kg i.p. 15 min prior to nicotine 0.1 mg/kg s.c.): no longer significant | Nicotine conditioned place preference ([6]; methoxsalen 15 and 30 mg/kg i.p. 15 min prior to nicotine 0.1 mg/kg s.c.): produced a significant CPP

CN1CCC[C@H]1c1cccnc1 [Nicotine, (−)-1-Methyl-2-(3-pyridyl) pyrrolidine (+)-bitartrate salt]
Number of somatic signs in spontaneous withdrawal [7]: significantly increased | Time spent on the hot-plate in spontaneous withdrawal [8]: decreased | Nicotine conditioned place preference ([6]; nicotine 0.1 mg/kg s.c. alone (vehicle pretreatment), vs vehicle-treated group): did not induce place preference | Decrease in rate of nicotine clearance [9]: 90%
